Measured values reported in patent US10899879B2, “Biodegradable trehalose glycopolymers” (THE REGENTS OF THE UNIVERSITY OF CALIFORNIA, priority 2014, dated 2021).

How the values were obtained:
lysozyme = lysozyme (Gallus gallus, UniProt P00698); test: Stabilization of lysozyme against heat stress with trehalose-CL as excipient; assay type: biochemical; conditions: lysozyme 0.02 mg/mL heated to 90° C. for 20 minutes; additive 5 to 25 wt eq.; FIG. 12a
Experimental: Stabilization of model proteins using trehalose-caprolactone as excipient. The ability of these biodegradable trehalose polymers to stabilize proteins was confirmed through heat and lyophilization stress assays. […] Therefore, these proteins were also selected to test the biodegradable trehalose polymers. First, lysozyme was stressed by heating to 90° C. for 20 minutes.
Trehalose-CL and a styrenyl ether trehalose (SET) polymer previously described were also directly compared in their stabilization of lysozyme (FIG. 13) (Lee et al., 2013). […] Thus, the degradable trehalose glycopolymer was similar in stabilization ability to the non-degradable version.

β-galactosidase (β-Gal) = conditions: three 12-hour desiccation cycles; 25 equivalents of trehalose; FIG. 12b
Experimental: The stabilization of β-Gal against lyophilization stress was also measured. […] The activity of β-Gal was determined by reaction with ortho-nitrophenol galactose (ONPG). When incubated with β-Gal, release of the yellow-colored o-nitrophenol from ONPG can be monitored at 405 nm.
The activity of β-Gal was determined by reaction with ortho-nitrophenol galactose (ONPG). When incubated with β-Gal, release of the yellow-colored o-nitrophenol from ONPG can be monitored at 405 nm.
Lyophilization studies with β-galactosidase were carried out as previously described; β-Gal was subjected to three 12 hour lyophliization cycles before dilution. Activity was assayed by monitoring the hydrolysis of o-nitrophenol galactose (ONPG) at 405 nm.

Sequence of lysozyme (P00698 19-147): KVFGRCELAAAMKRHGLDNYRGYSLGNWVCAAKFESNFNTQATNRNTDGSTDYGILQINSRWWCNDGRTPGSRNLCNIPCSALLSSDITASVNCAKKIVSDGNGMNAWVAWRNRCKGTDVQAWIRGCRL

## OC[C@H]1O[C@H](O[C@H]2O[C@H](CO)[C@@H](O)[C@H](O)[C@H]2O)[C@H](O)[C@@H](O)[C@@H]1O [trehalose]
lysozyme
  lysozyme native activity retained after heat stress: not significantly different from the negative control
β-galactosidase (β-Gal)
  β-Gal native activity maintained after lyophilization stress, 25 equivalents of additive: up to 67%
